# Measurements published in patent US20260265304A1, “PEPTIDE INHIBITORS OF FOCAL ADHESION KINASE ACTIVITY AND USES THEREOF” (Arizona Board of Regents on Behalf of the University of …, priority 2019, published 2026).
# Tests used:
# [1] = target: T1, FAK FAT domain (biotinylated Avitag-FAT protein) (Homo sapiens, UniProt Q05397); experiment: Surface plasmon resonance (SPR) binding to immobilised FAT protein; settings: FAT protein immobilised, peptide 200 μM-0.01 μM, 1:1 binding model; read-out: SPR KD
# T1 construct: biotinylated Avitag-FAT protein was diluted in running buffer
# T1 sequence (Q05397 914-1045 limits assumed): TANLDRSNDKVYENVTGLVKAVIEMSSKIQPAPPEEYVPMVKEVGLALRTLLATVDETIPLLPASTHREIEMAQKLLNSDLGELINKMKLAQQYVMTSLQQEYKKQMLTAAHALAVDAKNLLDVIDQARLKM
# HUVEC cells = experiment: 3D Matrigel-on-top proliferation assay in normal cells; assay type: cell-based
# Procedure: (§1) B. 3D structure of negative control molecule (UACC-2020). C. 3D Matrigel-on-top cell proliferation data of stapled peptides in SK-MEL-103 melanoma cells.
# (§2) A negative control myristoylated peptide (2020) was designed and synthesized based on non-active molecule 2014. Experiments were conducted to test the efficacy of these peptides in 3D proliferation assays using SK-MEL-103 melanoma cells. […] Furthermore, 2012 had no effects on the proliferation of normal HUVEC cells (IC50=NA) (FIG. 7).
# trypsin = target: T2, trypsin (Bos taurus, UniProt P00760); experiment: In vitro trypsin digest assay (trypsin-agarose beads, LC-MS); assay type: in vitro ADME; settings: trypsin-agarose beads in physiological buffer, read-out: t1/2 in trypsin digest (protease resistance) (converted)
# T2 construct: purchased ThermoFisher
# T2 sequence (P00760 24-246): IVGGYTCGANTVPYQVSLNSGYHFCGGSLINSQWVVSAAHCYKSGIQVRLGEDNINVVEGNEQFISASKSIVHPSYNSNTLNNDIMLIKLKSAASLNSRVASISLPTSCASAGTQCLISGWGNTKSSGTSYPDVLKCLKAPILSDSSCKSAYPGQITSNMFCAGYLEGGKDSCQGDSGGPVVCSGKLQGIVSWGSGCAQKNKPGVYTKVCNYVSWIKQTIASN
# Procedure: Assays were performed using trypsin-agarose beads (ThermoFisher) and measurement of peptide concentration using LC-MS. Peptide half-lives were calculated using GraphPad Prism software.
# Trypsin-agarose beads were used to test the potential cleavage of peptides in a physiological buffer and LC-MS was used as the analytical method to determine peptide concentration.
# [2] = test system: SK-MEL-103 melanoma cells; experiment: 3D Matrigel-on-top proliferation assay; assay type: cell-based; settings: SK-MEL-103 melanoma cells, 3D Matrigel-on-top
# Procedure: B. Competition FP experiment with 1907 showing inhibition of TAMRA-LD2 binding to FAT. C. SPR binding and selectivity analysis using WT FAT and Mutant FAT (L994E, 1936A) at the helix-protein interface. D. Flow cytometry analysis of Rhodamine-1907 (10 μM) cellular uptake in MDA-MB-453 breast cancer cells. E. Boyden-chamber invasion assays in SK-MEL-103 melanoma cells. F. 3D Matrigel-on-top proliferation assays in SK-MEL-103 melanoma cells.
# as §1, §2
# [3] = test system: LX2 human liver stellate cells; experiment: Anti-fibrotic activity in TGF-β-induced stellate cells (Western blot, morphology); assay type: cell-based
# Procedure: A. Western blot studies of LX2 cells treated with 2 ng/ml TGF-β for 17 h to induce pro-fibrotic phenotypes. […] Quantification of fibronectin results are shown in the lower panel. B. Morphological changes of LX2 cells after TGF-β and peptide treatment for 17 h. Images were captured using bright field microscopy.
# Experiments were conducted to test the anti-fibrotic effects of stapled peptides targeting the FAK FAT domain (FIG. 13). TGF-β induction was performed in LX-2 human liver stellate cells to promote a pro-fibrotic phenotypic and differentiation to myofibroblast-like cells.
smiles,measurement,setting,value
"CCCCCCCCCCCCCC(=O)N[C@@H](CC(N)=O)C(=O)N[C@@H](CC(C)C)C(=O)N[C@]1(C)CCCCCCC=CCCC[C@@](C)(C(=O)N[C@@H](CCC(=O)O)C(=O)N[C@@H](CC(C)C)C(=O)N[C@@H](CC(N)=O)C(N)=O)NC(=O)[C@H](CC(C)C)NC(=O)[C@H](CC(C)C)NC(=O)[C@H](CCCNC(=N)N)NC(=O)[C@H](CC(=O)O)NC(=O)[C@H](CC(C)C)NC(=O)[C@H](CCC(=O)O)NC1=O [Peptide 2012, Myristoyl-NLR8ELDRLLS5ELN-NH2]",Kd,[1],> 200 µM
same,3D proliferation IC50,HUVEC cells,no effects
same,half-life,trypsin,> 2880 min
same,IC50,[2],5.5 µM
same,TGF-β-induced expression of fibronectin,"[3]; LX2 cells, 2 ng/ml TGF-β 17 h, peptide 10, 5, 2 μM pretreated 1 h","reduced the TGF-β-induced expression of fibronectin, a marker of fibrosis, in a dose-dependent manner"
same,morphological change of TGF-β-induced cells,"[3]; LX-2 cells, TGF-β and peptide treatment 17 h, bright field microscopy",induced a morphological change
